The target in this test is T1, ΔF508-CFTR (Homo sapiens, UniProt P13569, DEL508-508).
T1 construct: expressed in transfected cells
Briefly: Membrane potential optical assay for potentiators of ΔF508-CFTR (FLIPR III, voltage sensing dyes). The format is cell-based. Particulars: for Emax: NIH3T3, 100% efficacy is the maximum response obtained with 4-methyl-2-(5-phenyl-1H-pyrazol-3-yl)phenol, ΔF508 CFTR NIH 3T3 cells; for pEC50: temperature-corrected ΔF508 CFTR NIH 3T3 cells, forskolin activation. From the text:
The assay utilizes fluorescent voltage sensing dyes to measure changes in membrane potential using a fluorescent plate reader (e.g., FLIPR III, Molecular Devices, Inc.) as a readout for increase in functional ΔF508-CFTR in NIH 3T3 cells.
To identify potentiators of ΔF508-CFTR, a double-addition HTS assay format was developed. This HTS assay utilizes fluorescent voltage sensing dyes to measure changes in membrane potential on the FLIPR III as a measurement for increase in gating (conductance) of ΔF508 CFTR in temperature-corrected ΔF508 CFTR NIH 3T3 cells.
Solutions • Bath Solution #1: (in mM) NaCl 160, KCl 4.5, CaCl2 2, MgCl2 1, HEPES 10, pH 7.4 with NaOH. • Chloride-Free Bath Solution: Chloride Salts in Bath Solution #1 are Substituted with Gluconate Salts.
NIH3T3 mouse fibroblasts stably expressing ΔF508-CFTR are used for optical measurements of membrane potential. The cells are maintained at 37° C. in 5% CO2 and 90% humidity in Dulbecco's modified Eagle's medium supplemented with 2 mM glutamine, 10% fetal bovine serum, 1×NEAA, β-ME, 1×pen/strep, and 25 mM HEPES in 175 cm^2 culture flasks. For all optical assays, the cells were seeded at ˜20,000/well in 384-well matrigel-coated plates and cultured for 2 hrs at 37° C. before culturing at 27° C. for 24 hrs. for the potentiator assay. For the correction assays, the cells are cultured at 27° C. or 37° C. with and without compounds for 16-24 hours. Electrophysiological Assays for assaying ΔF508-CFTR modulation properties of compounds.

pEC50: −log10 of the molar value. Structures can show the parent of a compound that is named as a salt. A value given as a limit tells only on which side of the number the result lay.

T1 sequence (P13569 with tags, fused parts or gaps DEL508-508): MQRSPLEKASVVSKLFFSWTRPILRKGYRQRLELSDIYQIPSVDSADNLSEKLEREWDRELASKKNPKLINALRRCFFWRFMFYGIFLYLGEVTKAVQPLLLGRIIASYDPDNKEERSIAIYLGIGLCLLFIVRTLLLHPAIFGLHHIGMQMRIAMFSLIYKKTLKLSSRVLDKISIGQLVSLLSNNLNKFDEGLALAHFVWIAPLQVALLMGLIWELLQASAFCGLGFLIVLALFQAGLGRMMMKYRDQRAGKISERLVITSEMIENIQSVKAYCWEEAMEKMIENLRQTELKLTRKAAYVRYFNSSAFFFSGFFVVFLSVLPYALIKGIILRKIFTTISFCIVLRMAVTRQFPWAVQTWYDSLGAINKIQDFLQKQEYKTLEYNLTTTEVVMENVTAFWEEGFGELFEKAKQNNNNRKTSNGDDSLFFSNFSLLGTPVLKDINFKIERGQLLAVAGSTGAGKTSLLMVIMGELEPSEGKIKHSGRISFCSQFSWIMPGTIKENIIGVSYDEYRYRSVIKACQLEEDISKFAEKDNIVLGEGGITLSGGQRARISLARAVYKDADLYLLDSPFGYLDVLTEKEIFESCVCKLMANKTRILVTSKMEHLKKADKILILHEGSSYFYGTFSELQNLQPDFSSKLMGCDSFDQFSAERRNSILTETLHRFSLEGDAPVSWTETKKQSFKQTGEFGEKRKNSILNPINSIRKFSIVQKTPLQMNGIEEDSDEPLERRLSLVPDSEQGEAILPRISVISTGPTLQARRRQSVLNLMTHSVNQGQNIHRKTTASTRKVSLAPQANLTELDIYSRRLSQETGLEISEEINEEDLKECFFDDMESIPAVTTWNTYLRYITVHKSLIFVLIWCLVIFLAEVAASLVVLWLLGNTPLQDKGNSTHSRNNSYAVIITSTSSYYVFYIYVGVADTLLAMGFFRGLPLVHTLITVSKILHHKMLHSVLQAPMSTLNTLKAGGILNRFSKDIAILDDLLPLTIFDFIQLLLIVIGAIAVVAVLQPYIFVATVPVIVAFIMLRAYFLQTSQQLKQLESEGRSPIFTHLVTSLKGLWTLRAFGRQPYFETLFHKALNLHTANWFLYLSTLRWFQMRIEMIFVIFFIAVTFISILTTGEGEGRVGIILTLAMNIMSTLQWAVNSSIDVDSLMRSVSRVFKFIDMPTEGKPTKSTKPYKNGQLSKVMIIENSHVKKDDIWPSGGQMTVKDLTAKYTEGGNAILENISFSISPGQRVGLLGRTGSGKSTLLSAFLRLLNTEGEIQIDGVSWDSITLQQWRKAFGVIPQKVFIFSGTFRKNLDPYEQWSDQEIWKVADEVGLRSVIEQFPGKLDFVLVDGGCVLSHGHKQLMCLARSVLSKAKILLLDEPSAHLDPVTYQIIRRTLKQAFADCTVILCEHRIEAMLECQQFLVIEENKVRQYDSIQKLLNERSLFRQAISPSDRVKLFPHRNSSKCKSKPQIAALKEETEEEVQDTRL

`COc1cc(NC(=O)C2CNc3cc(OC(F)(F)F)ccc3O2)c(C#CCN(C)C)cc1C1CCCC1` (stereo not shown) [Compound 95]: the Emax (usually the greatest response seen or fitted, relative to the assay's reference) is above 100% and the pEC50 (as a rule, −log10 of the EC50, conventionally taken in molar units) was above 5.30.
For `CC(C)CC#Cc1cc(C2CCCC2)c(O)cc1NC(=O)C1CNc2cc(OC(F)(F)F)ccc2O1` (stereo not shown) [Compound 53] the same measures were 25 to 100% and above 5.30.
As to `Cc1ccc(NC(=O)C2CNc3cc(OC(F)(F)F)ccc3O2)c(C#CCN2CCC(C(=O)O)CC2)c1` (stereo not shown) [Compound 69], the Emax was 25 to 100% and the pEC50 was 4.70 to 5.30.
With `CC(C)Oc1c(O)cccc1NC(=O)C1CNc2ccc(F)cc2O1` (stereo not shown) [Compound 112], the maximum response (Emax) lay in the range of 25 to 100% and the pEC50 was 4.70 to 5.30.
`CCN1CCN(c2cc(C3CCCC3)c(O)cc2NC(=O)C2CNc3cc(C#N)ccc3O2)CC1` (stereo not shown) [Compound 10]: the maximal response (Emax) is below 25% and the pEC50 is 4.70 to 5.30.
Turning to `O=C(Nc1cc(O)c(C2CCCC2)cc1C(F)(F)F)[C@@H]1CNc2cc(F)ccc2O1` [Compound 76], the Emax fell in the range of 25 to 100% and the negative logarithm of the EC50 (pEC50) is above 5.30.
For `CC1(c2cc(F)c(NC(=O)C3CNc4ccccc4O3)cc2O)CCCCC1` (stereo not shown) [Compound 99] the same measures were 25 to 100% and above 5.30.
For `Cc1cc(C#CCN(C)C)c(NC(=O)C2CNc3cc(OC(F)(F)F)ccc3O2)cc1O` (stereo not shown) [Compound 7] the same measures were 25 to 100% and above 5.30.
For the compound `O=C(O)Cc1cc(C2CCCC2)c(O)cc1NC(=O)C1CNc2cc(OC(F)(F)F)ccc2O1` (stereo not shown) [Compound 24], the Emax was above 100% and the pEC50 was above 5.30.
`Cc1ccc2c(c1)NCC(C(=O)Nc1cc(O)c(C3(C)CCCCC3)cc1F)O2` (stereo not shown) [Compound 97]: the maximal effect (Emax) is 25 to 100% and the pEC50 was above 5.30.
For the compound `Cc1cc2c(cc1F)NCC(C(=O)Nc1cc(O)c(C(C)(C)C)cc1C(C)(C)C)O2` (stereo not shown) [Compound 6], the maximum response (Emax) lay in the range of 25 to 100% and the negative logarithm of the EC50 (pEC50) was above 5.30.
Turning to `CC1(c2cc(F)c(NC(=O)[C@H]3CNc4ccccc4O3)cc2O)CCCCC1` [Compound 80], the maximal response (Emax) is 25 to 100% and the negative logarithm of the EC50 (pEC50) was above 5.30.
In the same order, the values of `CN(C)CC#Cc1cc(C2CCCC2)c(O)cc1NC(=O)C1(C)CNc2cc(OC(F)(F)F)ccc2O1` (stereo not shown) [Compound 79] are above 100% and above 5.30.
As to `O=C(Nc1cc(O)c(C2CCCC2)cc1Cl)C1CNc2ccc(F)cc2O1` (stereo not shown) [Compound 103], the Emax lay within 25 to 100% and the negative logarithm of the EC50 (pEC50) was above 5.30.
As to `CN(C)CC#Cc1cc(F)ccc1NC(=O)C1CNc2cc(C#N)ccc2O1` (stereo not shown) [Compound 114], the Emax was in the range of 25 to 100% and the negative logarithm of the EC50 (pEC50) was 4.70 to 5.30.
For `O=C(Nc1cc(O)c(C2CCCC2)cc1C(F)(F)F)C1CNc2ccc(F)cc2O1` (stereo not shown) [Compound 31] the same measures were 25 to 100% and above 5.30.
Turning to `O=C(Nc1cc(O)c(C2CCCC2)cc1CN1CCCCC1)C1CNc2ccccc2O1` (stereo not shown) [Compound 3], the maximal response (Emax) is 25 to 100% and the pEC50 is above 5.30.
In the same order, the values of `O=C(Nc1cc(O)c(C2CCCC2)cc1C(F)(F)F)[C@H]1CNc2cc(F)ccc2O1` [Compound 93] are 25 to 100% and above 5.30.
For `CN(C)CC#Cc1cc(C2CCCC2)c(O)cc1NC(=O)[C@H]1CNc2ccccc2O1` [Compound 84] the same measures were 25 to 100% and above 5.30.
In the same order, the values of `Cc1ccc(NC(=O)C2CNc3cc(OC(F)(F)F)ccc3O2)c(C#CCN2CCC(O)CC2)c1` (stereo not shown) [Compound 64] are 25 to 100% and above 5.30.
Take `COc1cc(NC(=O)C2CNc3ccc(F)cc3O2)c(Cl)cc1C(C)(C)O` (stereo not shown) [Compound 82]: the Emax lay in the range of 25 to 100% and the pEC50 is above 5.30.
In the case of `CC1(c2cc(F)c(NC(=O)C3CNc4ccc(F)cc4O3)cc2O)CCCCC1` (stereo not shown) [Compound 68], the Emax was 25 to 100% and the negative-log EC50 (pEC50) is above 5.30.
With `CC(C)Oc1ccc(NC(=O)C2CNc3ccc(F)cc3O2)cc1O` (stereo not shown) [Compound 42], the Emax is below 25% and the negative-log EC50 (pEC50) was 4.70 to 5.30.
In the same order, the values of `Cc1cc(C2CCCC2)c(O)cc1NC(=O)[C@H]1CNc2cc(C#N)ccc2O1` [Compound 88] are 25 to 100% and above 5.30.
In the case of `CC1(c2cc(F)c(NC(=O)[C@@H]3CNc4ccccc4O3)cc2O)CCCCC1` [Compound 19], the Emax lay in the range of 25 to 100% and the pEC50 is above 5.30.
For `CC(C)(C)c1ccc(NC(=O)C2CNc3ccccc3S2)cc1O` (stereo not shown) [Compound 120, N-(4-tert-butyl-3-hydroxy-phenyl)-3,4-dihydro-2H-1,4-benzothiazine-2-carboxamide] the same measures were 25 to 100% and above 5.30.
Take `CN(C)CC#Cc1cc(C2CCCC2)c(O)cc1NC(=O)C1CNc2cc(F)ccc2O1` (stereo not shown) [Compound 123]: the Emax fell in the range of 25 to 100% and the negative-log EC50 (pEC50) was above 5.30.
For `Cc1ccc(NC(=O)C2CNc3cc(OC(F)(F)F)ccc3O2)c(C#CCN2CCOCC2)c1` (stereo not shown) [Compound 100, N-(4-methyl-2-(3-morpholinoprop-1-ynyl)phenyl)-6-(trifluoromethoxy)-3,4-dihydro-2H-benzo[b][1,4]oxazine-2-carboxamide] the same measures were above 100% and above 5.30.
In the same order, the values of `N#Cc1cc(C2CCCC2)c(O)cc1NC(=O)[C@@H]1CNc2ccc(F)cc2O1` [Compound 50] are 25 to 100% and above 5.30.
For the compound `CC(C)(C)c1cc(C(C)(C)C)c(NC(=O)C2CNc3ccccc3O2)cc1O` (stereo not shown) [Compound 90], the Emax lay in the range of 25 to 100% and the negative logarithm of the EC50 (pEC50) is above 5.30.
For `N#Cc1ccc2c(c1)NCC(C(=O)Nc1cc(O)c(C3CCCC3)cc1C1=CCNCC1)O2` (stereo not shown) [Compound 11, 6-cyano-N-(4-cyclopentyl-5-hydroxy-2-(1,2,3,6-tetrahydropyridin-4-yl)phenyl)-3,4-dihydro-2H-benzo[b][1,4]oxazine-2-carboxamide] the same measures were 25 to 100% and 4.70 to 5.30.
Consider `CC[N+](CC)(CC)CC#Cc1cc(C)ccc1NC(=O)C1CNc2cc(OC(F)(F)F)ccc2O1` (stereo not shown) [Compound 102], for which the maximal effect (Emax) is 25 to 100% and the pEC50 is 4.70 to 5.30.
For `CC(C)(C)c1ccc(NC(=O)[C@H]2CNc3ccc(F)cc3O2)cc1O` [Compound 77] the same measures were 25 to 100% and above 5.30.
As to `Cc1cc(C#CCN(C)C)c(NC(=O)C2CNc3ccccc3O2)cc1F` (stereo not shown) [Compound 36], the Emax lay in the range of 25 to 100% and the negative-log EC50 (pEC50) is 4.70 to 5.30.
Take `Cc1ccc(NC(=O)C2CNc3cc(OC(F)(F)F)ccc3O2)c(CCN2CCOCC2)c1` (stereo not shown) [Compound 116]: the maximal response (Emax) was in the range of 25 to 100% and the negative logarithm of the EC50 (pEC50) was above 5.30.
In the same order, the values of `Cc1cc(N2C3CCC2CC3)ncc1NC(=O)C1CNc2ccc(F)cc2O1` (stereo not shown) [Compound 56] are 25 to 100% and 4.70 to 5.30.
Turning to `O=C(Nc1ccc(OC(F)(F)F)c(O)c1)C1CNc2ccc(F)cc2O1` (stereo not shown) [Compound 47], the maximal response (Emax) was in the range of 25 to 100% and the pEC50 was above 5.30.
Turning to `NCC#Cc1cc(C2CCCC2)c(O)cc1NC(=O)C1CNc2cc(OC(F)(F)F)ccc2O1` (stereo not shown) [Compound 40], the Emax was in the range of 25 to 100% and the pEC50 was above 5.30.
`CC1CCN(Cc2cc(C3CCCC3)c(O)cc2NC(=O)C2CNc3cc(OC(F)(F)F)ccc3O2)CC1` (stereo not shown) [Compound 117]: the Emax was above 100% and the pEC50 was above 5.30.
For the compound `CN(C)CC#Cc1cc(C2CCCC2)c(O)cc1NC(=O)[C@@H]1CNc2cc(OC(F)(F)F)ccc2O1` [Compound 65], the Emax is above 100% and the pEC50 was above 5.30.
Take `Cc1ccc2c(c1)OC(C(=O)Nc1cc(O)c(C)cc1F)CN2` (stereo not shown) [Compound 86]: the maximal effect (Emax) is 25 to 100% and the pEC50 is above 5.30.
Regarding `Cc1cc(C)c(NC(=O)C2CNc3cc(OC(F)(F)F)ccc3O2)c(C#CCN(C)C)c1` (stereo not shown) [Compound 15], the Emax is 25 to 100% and the pEC50 was above 5.30.
On to `CN(C(=O)C1CNc2ccccc2O1)c1ccc(C(C)(C)C)c(O)c1` (stereo not shown) [Compound 115, N-(4-tert-butyl-3-hydroxyphenyl)-N-methyl-3,4-dihydro-2H-benzo[b][1,4]oxazine-2-carboxamide hydrochloride], for which the Emax was in the range of 25 to 100% and the negative-log EC50 (pEC50) was above 5.30.
For `O=C(Nc1ccc(C(F)(F)F)c(O)c1)C1CNc2ccccc2O1` (stereo not shown) [Compound 5] the same measures were below 25% and 4.70 to 5.30.
In the same order, the values of `O=C(Nc1cc(O)c(C2CCCC2)cc1C#CCO)C1CNc2cc(OC(F)(F)F)ccc2O1` (stereo not shown) [Compound 12] are 25 to 100% and above 5.30.
Take `N#Cc1ccc2c(c1)NCC(C(=O)Nc1cc(O)c(C3CCCC3)cc1C1CCNCC1)O2` (stereo not shown) [Compound 113]: the maximum response (Emax) was below 25% and the pEC50 was 4.70 to 5.30.
In the case of `O=C(Nc1cc(O)c(C2CCCC2)cc1C#CCN1CCCC1)C1CNc2cc(OC(F)(F)F)ccc2O1` (stereo not shown) [Compound 22], the maximal effect (Emax) is above 100% and the pEC50 is above 5.30.

Values taken from patent publication US8999976B2, “Modulators of cystic fibrosis transmembrane conductance regulator” (Vertex Pharmaceuticals Incorporated, priority 2008, dated 2015).
